Experimental findings from patent US20070275967A1, “Pyrazolinols” (BAYER CROPSCIENCE AKTIENGESELLSCHAFT, priority 2003, published 2007) are described below.

In data set [1] the test system is greenhouse red spidermite (Tetranychus urticae). As to the kind of experiment: Tetranychus test (OP-resistant/spray treatment). The class given is in vivo. The conditions noted are these: for pest or weed control at 500 g/ha / pest or weed control at 100 g/ha: Tetranychus urticae, 120 h, after 5 d, OP-resistant, spray treatment, read-out: Kill rate in % after 5 d; for pest or weed control at 500 g/ha: active compound concentration 500 g/ha; for activity (kill of spidermites): bean leaf disks infested by all stages of Tetranychus urticae (OP-resistant), sprayed, result in words; for pest or weed control at 100 g/ha: active compound concentration 100 g/ha. On the procedure:
Tetranychus Test (OP-Resistant/Spray Treatment)
To produce a suitable preparation of active compound, 1 part by weight of active compound is mixed with the stated amounts of solvents and emulsifier, and the concentrate is diluted with emulsifier-containing water to the desired concentration.
Disks of bean leaves (Phaseolus vulgaris) which are infested by all stages of the greenhouse red spidermite (Tetranychus urticae) are sprayed with a preparation of active compound of the desired concentration.
After the desired period of time, the activity in % is determined. 100% means that all spidermites have been killed; 0% means that none of the spidermites have been killed.

Data set [2] in a line: logP determination by HPLC on reversed-phase column (EEC Directive 79/831 Annex V.A8). It counts as physicochemical. As to conditions: acidic range (pH 2.3), marked a), 0.1% aqueous phosphoric acid/acetonitrile gradient, reversed-phase C 18, 43° C.; for chromatographic logP: reversed-phase C18 HPLC column. The procedure:
The logP values given in the table were determined in accordance with EEC Directive 79/831 Annex V.A8 by HPLC (High Performance Liquid Chromatography) on a reversed-phase column (C 18). Temperature: 43° C. (a) Mobile phases for the determination in the acidic range (pH 2.3): 0.1% aqueous phosphoric acid, acetonitrile; linear gradient from 10% acetonitrile to 90% acetonitrile—the corresponding measurement results in table 1 are marked a). (b) Mobile phases for the determination in the neutral range (pH 7.5): 0.01-molar aqueous phosphate buffer solution, acetonitrile; linear gradient from 10% acetonitrile to 90% acetonitrile—the corresponding measurement results in table 1 are marked b). Calibration was carried out using unbranched alkan-2-ones (having 3 to 16 carbon atoms) with known logP values (determination of the logP values by the retention times using linear interpolation between two successive alkanones).

In data set [3] the test system is larvae of the mustard beetle (Phaedon cochleariae). As to the kind of experiment: Phaedon test (spray treatment). The class given is in vivo. The conditions noted are these: for activity (kill of beetle larvae): Chinese cabbage disks sprayed, populated with Phaedon cochleariae larvae, result in words; for pest or weed control at 500 g/ha / pest or weed control at 100 g/ha: Phaedon cochleariae, 168 h, after 7 d, spray treatment, read-out: Kill rate in % after 7 d; for pest or weed control at 500 g/ha: active compound concentration 500 g/ha; for pest or weed control at 100 g/ha: active compound concentration 100 g/ha. On the procedure:
Phaedon Test (Spray Treatment) [table] To produce a suitable preparation of active compound, 1 part by weight of active compound is mixed with the stated amounts of solvents and emulsifier, and the concentrate is diluted with emulsifier-containing water to the desired concentration. Disks of Chinese cabbage (Brassica pekinensis) are sprayed with a preparation of active compound of the desired concentration and, once they have dried, populated with larvae of the mustard beetle (Phaedon cochleariae). After the desired period of time, the activity in % is determined. 100% means that all beetle larvae have been killed; 0% means that none of the beetle larvae have been killed.

For data set [4], the system named is caterpillars of the armyworm (Spodoptera frugiperda). Description: Spodoptera frugiperda test (spray treatment). The class given is in vivo. The conditions noted are these: for pest or weed control at 500 g/ha / pest or weed control at 100 g/ha: Spodoptera frugiperda, 168 h, after 7 d, spray treatment, read-out: Kill rate in % after 7 d; for pest or weed control at 500 g/ha: active compound concentration 500 g/ha; for activity (kill of caterpillars): corn leaf disks sprayed, populated with Spodoptera frugiperda caterpillars, result in words; for pest or weed control at 100 g/ha: active compound concentration 100 g/ha. The procedure: Spodoptera Frugiperda Test (Spray Treatment) [table] To produce a suitable preparation of active compound, 1 part by weight of active compound is mixed with, the stated amounts of solvents and emulsifier, and the concentrate is diluted with emulsifier-containing water to the desired concentration. Disks of corn leaves (Zea mays) are sprayed with a preparation of active compound of the desired concentration and, after they have dried, populated with caterpillars of the armyworm (Spodoptera frugiperda). After the desired period of time, the activity in % is determined. 100% means that all caterpillars have been killed; 0% means that none of the caterpillars have been killed.

As a reminder, the chromatographic logP is a lipophilicity value derived from retention on a column. Read a high chromatographic logP as higher lipophilicity. Regarding `CC(C)CC1=NN(C(=S)Nc2ccc(OC(F)(F)F)cc2)C(O)(C(F)(F)F)C1` (stereo not shown) [Example 22], in data set [1], the pest or weed control at 500 g/ha amounted to 90% and the “activity (kill of spidermites)” value is reported as “good activity”. Further, the chromatographic logP in data set [2] amounted to 4.42.
Regarding `COc1ccccc1NC(=S)N1N=C(C(C)C)CC1(O)C(F)(F)F` (stereo not shown) [Example 30], in data set [3], the “activity (kill of beetle larvae)” value is “good activity” and the pest or weed control at 500 g/ha was found to be 100%. In data set [1], the pest or weed control at 500 g/ha stood at 90% and the “activity (kill of spidermites)” value is on record as “good activity”. For the same molecule, in data set [2], the chromatographic logP came out at 4.23.
Regarding `Cc1ccccc1NC(=S)N1N=C(C(C)C)CC1(O)C(F)(F)F` (stereo not shown) [Example 32], in data set [3], the “activity (kill of beetle larvae)” value was “good activity” and the pest or weed control at 500 g/ha was 100%. Besides, in data set [4], the pest or weed control at 500 g/ha was determined as 100% and the “activity (kill of caterpillars)” value was “good activity”. In data set [2], this molecule had a chromatographic logP of 4.1.
Turning to `CC(C)C1=NN(C(=S)NC2CCCCC2)C(O)(C(F)(F)F)C1` (stereo not shown) [Example 44], in data set [3], the “activity (kill of beetle larvae)” value was “good activity” and the pest or weed control at 500 g/ha stood at 100%. Also, in data set [1], the pest or weed control at 500 g/ha came out at 90% and the “activity (kill of spidermites)” value was “good activity”. Moreover, in data set [4], the pest or weed control at 500 g/ha came to 100% and the “activity (kill of caterpillars)” value was “good activity”. In data set [2], the chromatographic logP was 4.94.
For the molecule `CCC1=NN(C(=S)Nc2ccc(Cl)cc2)C(O)(C(F)(F)F)C1` (stereo not shown) [Example 53], in data set [3], the “activity (kill of beetle larvae)” value is given as “good activity” and the pest or weed control at 500 g/ha was 100%. This molecule also displayed a chromatographic logP in data set [2] of 4.07.
For `CCC1=NN(C(=S)NCc2ccccc2Cl)C(O)(C(F)(F)F)C1` (stereo not shown) [Example 56], in data set [3], the “activity (kill of beetle larvae)” value was “good activity” and the pest or weed control at 500 g/ha is 100%. Further, in data set [1], the pest or weed control at 100 g/ha worked out at 90% and the “activity (kill of spidermites)” value is given as “good activity”. The same molecule yielded a chromatographic logP in data set [2] of 4.25.
In the case of `CC(C)(C)C1=NN(C(=S)Nc2ccccc2)C(O)(C(F)(F)F)C1` (stereo not shown) [Example 63], in data set [3], the “activity (kill of beetle larvae)” value is on record as “good activity” and the pest or weed control at 100 g/ha was 100%. Also, in data set [4], the pest or weed control at 100 g/ha was 100% and the “activity (kill of caterpillars)” value was “good activity”. The molecule further yielded a chromatographic logP in data set [2] of 4.26.
For the molecule `CC(C)(C)C1=NN(C(=S)Nc2ccc(OC(F)(F)F)cc2)C(O)(C(F)(F)F)C1` (stereo not shown) [Example 64], in data set [3], the “activity (kill of beetle larvae)” value is given as “good activity” and the pest or weed control at 100 g/ha was 100%. Besides, in data set [4], the pest or weed control at 100 g/ha stood at 100% and the “activity (kill of caterpillars)” value is recorded as “good activity”. Also, the chromatographic logP in data set [2] stood at 4.94.
As to `CC(C)(C)C1=NN(C(=S)NC2CCCCC2)C(O)(C(F)(F)F)C1` (stereo not shown) [Example 73], in data set [3], the “activity (kill of beetle larvae)” value is “good activity” and the pest or weed control at 100 g/ha turned out to be 100%. Besides, in data set [4], the pest or weed control at 100 g/ha worked out at 100% and the “activity (kill of caterpillars)” value is recorded as “good activity”.
Turning to `OC1(C(F)(F)F)CC(c2ccccc2)=NN1C(=S)Nc1ccc(Cl)cc1` (stereo not shown) [Example 83], in data set [4], the pest or weed control at 500 g/ha amounted to 100% and the “activity (kill of caterpillars)” value was “good activity”. Also, the chromatographic logP in data set [2] came out at 4.58.
In the case of `CC1=NN(C(=S)Nc2ccc(OC(F)(F)F)cc2)C(O)(C(F)(F)F)C1` (stereo not shown) [Example 106], in data set [1], the pest or weed control at 100 g/ha worked out at 100% and the “activity (kill of spidermites)” value was “good activity”. This molecule also had a chromatographic logP in data set [2] of 3.37.
Turning to `COc1ccccc1NC(=S)N1N=C(C)CC1(O)C(F)(F)F` (stereo not shown) [Example 108], in data set [2], the logP result is listed as “logP = 3.36^a)”.
Same read-out and setting: for `CC1=NN(C(=S)Nc2cc(Cl)cc(Cl)c2)C(O)(C(F)(F)F)C1` (stereo not shown) [Example 109] the value was “logP = 4.18^a)”.
Same read-out and setting: for `CC1=NN(C(=S)Nc2ccc(F)cc2)C(O)(C(F)(F)F)C1` (stereo not shown) [Example 110] the value was “logP = 2.06^a)”; for `CC1=NN(C(=S)Nc2cccc(F)c2)C(O)(C(F)(F)F)C1` (stereo not shown) [Example 111], “logP = 3.18^a)”.
Still for that read-out and setting: as for `CC1=NN(C(=S)Nc2ccc(OC(F)(F)F)cc2)C(O)(C(F)(F)F)C1` (stereo not shown) [Example 112], the entry is “logP = 3.89^a)”.
`CC1=NN(C(=S)NCc2ccc(Cl)c(Cl)c2)C(O)(C(F)(F)F)C1` (stereo not shown) [Example 113]: the logP entry in data set [2] is “logP = 4.26^a)”.
Same read-out and setting: for `CC1=NN(C(=O)Nc2ccc(Cl)c(Cl)c2)C(O)(C(F)(F)F)C1` (stereo not shown) [Example 116] the value was “logP = 3.84^a)”; for `CC1=NN(C(=O)Nc2ccc(F)cc2)C(O)(C(F)(F)F)C1` (stereo not shown) [Example 117], “logP = 2.70^a)”.
Turning to `CC1=NN(C(=S)Nc2ccc(Cl)cc2Cl)C(O)(C(F)(F)F)C1` (stereo not shown) [Example 118], in data set [1], the pest or weed control at 100 g/ha is 90% and the “activity (kill of spidermites)” value was “good activity”. The chromatographic logP in data set [2] turned out to be 3.97.
Consider `CC1=NN(C(=S)Nc2ccc(C)cc2)C(O)(C(F)(F)F)C1` (stereo not shown) [Example 119], for which the logP result in data set [2] is given as “logP = 3.49^a)”.
The same measure, in the same setting: for `CC1=NN(C(=S)Nc2ccccc2F)C(O)(C(F)(F)F)C1` (stereo not shown) [Example 120] the value was “logP = 3.05^a)”; for `CC1=NN(C(=S)Nc2ccc(C(C)(C)C)cc2)C(O)(C(F)(F)F)C1` (stereo not shown) [Example 121], “logP = 4.45^a)”; for `CC1=NN(C(=S)NCc2ccccc2F)C(O)(C(F)(F)F)C1` (stereo not shown) [Example 124], “logP = 3.53^a)”.
Take `CC1=NN(C(=S)NCc2ccccc2Cl)C(O)(C(F)(F)F)C1` (stereo not shown) [Example 125]: the logP result in data set [2] is “logP = 3.87^a)”.
For `CC1=NN(C(=S)NCCc2ccc(Cl)cc2)C(O)(C(F)(F)F)C1` (stereo not shown) [Example 126], in data set [1], the pest or weed control at 100 g/ha is 90% and the “activity (kill of spidermites)” value is “good activity”. In data set [2], this molecule displayed a chromatographic logP of 4.24.
On to `CC(C)(C)C1=NN(C(=S)Nc2ccc(Cl)cc2)C(O)(C(Cl)(Cl)Cl)C1` (stereo not shown) [Example 129], for which the logP result in data set [2] is given as “logP = 4.03^a)”.
Turning to `CC(C)(C)C1=NN(C(=S)NCc2ccc(Cl)cc2)C(O)(C(Cl)(Cl)Cl)C1` (stereo not shown) [Example 130], the logP result in data set [2] was “logP = 2.72^a)”.
The same measure, in the same setting: for `CC(C)(C)C1=NN(C(=S)NCc2ccc(Cl)cc2)C(O)(C(F)(F)C(F)(F)F)C1` (stereo not shown) [Example 132] the value was “logP = 5.32^a)”; for `CC(C)(C)C1=NN(C(=O)Nc2ccc(Cl)cc2)C(O)(C(F)(F)C(F)(F)F)C1` (stereo not shown) [Example 134], “logP = 4.77^a)”; for `CC(C)(C)C1=NN(C(=S)Nc2ccc(Cl)cc2)C(O)(C(F)(F)C(F)(F)F)C1` (stereo not shown) [Example 135], “logP = 5.19^a)”.
On to `CC(C)(C)C1=NN(C(=S)Nc2ccc(Cl)cc2)C(O)(C(F)(F)C(F)(F)C(F)(F)F)C1` (stereo not shown) [Example 138], for which the logP entry in data set [2] was “logP = 5.57^a)”.
Still for that read-out and setting: for `CC(C)(C)C1=NN(C(=O)Nc2ccc(Cl)cc2)C(O)(C(F)(F)C(F)(F)C(F)(F)F)C1` (stereo not shown) [Example 140] the value was “logP = 5.20^a)”.
For the molecule `CC(C)(C)C1=NN(C(=S)Nc2ccc(Cl)cc2)C(O)(C(F)F)C1` (stereo not shown) [Example 142], the logP entry in data set [2] was “logP = 4.50^a)”.
As to `CC(C)(C)C1=NN(C(=O)Nc2ccc(Cl)cc2)C(O)(C(F)F)C1` (stereo not shown) [Example 144], the logP result in data set [2] is on record as “logP = 3.72^a)”.
